# Data published in the NIST ThermoML archive (doi:10.1021/acs.jced.8b00977).
# ± gives the expanded uncertainty stated by the source.
# How the values were obtained:
# [1] = Crystal; DSC
# [2] = Molar enthalpy of transition or fusion; details: Crystal; DSC
smiles,measurement,setting,value
CC(=O)CC(c1ccccc1)c1c([O-])c2ccccc2oc1=O.[Na+] (configuration not stated) [warfarin sodium],Triple point temperature,[1],468.87 ± 1 K
same,Molar enthalpy of transition or fusion,[2],71.1 ± 3.7 kJ/mol
